Source: patent US8501794B2, “Compounds as cannabinoid receptor ligands” (priority 2007, dated 2013)
Where two headings read alike, the source gives them in different places.

Key:
[1] = target: T1, human CB2 receptors (Homo sapiens, UniProt P34972); assay: human CB2 radioligand binding assay ([3H]CP-55,940 competition)
T1 construct: expressed in transfected cells; host or cells: HEK293

[2] = target: T2, rat CB2 (Rattus norvegicus, UniProt Q9QZN9); assay: rat CB2 radioligand binding assay ([3H]CP-55,940 competition); parameters: expressed in transfected cells; host or cells: HEK293
T2 sequence (Q9QZN9 1-360): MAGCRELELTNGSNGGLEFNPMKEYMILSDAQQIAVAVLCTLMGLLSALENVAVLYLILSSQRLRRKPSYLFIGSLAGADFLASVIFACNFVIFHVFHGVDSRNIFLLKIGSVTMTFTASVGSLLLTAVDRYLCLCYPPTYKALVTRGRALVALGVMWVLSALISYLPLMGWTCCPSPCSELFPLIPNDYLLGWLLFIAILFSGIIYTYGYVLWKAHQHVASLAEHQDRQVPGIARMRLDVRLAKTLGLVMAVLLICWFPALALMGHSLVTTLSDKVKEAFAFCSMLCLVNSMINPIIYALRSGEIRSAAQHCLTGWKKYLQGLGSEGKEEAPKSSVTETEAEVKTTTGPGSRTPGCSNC

[3] = HEK293 membranes, 0.5 nM [3H]CP-55,940, read-out: human CB2 (Ki)

T1 sequence (P34972 whole entry): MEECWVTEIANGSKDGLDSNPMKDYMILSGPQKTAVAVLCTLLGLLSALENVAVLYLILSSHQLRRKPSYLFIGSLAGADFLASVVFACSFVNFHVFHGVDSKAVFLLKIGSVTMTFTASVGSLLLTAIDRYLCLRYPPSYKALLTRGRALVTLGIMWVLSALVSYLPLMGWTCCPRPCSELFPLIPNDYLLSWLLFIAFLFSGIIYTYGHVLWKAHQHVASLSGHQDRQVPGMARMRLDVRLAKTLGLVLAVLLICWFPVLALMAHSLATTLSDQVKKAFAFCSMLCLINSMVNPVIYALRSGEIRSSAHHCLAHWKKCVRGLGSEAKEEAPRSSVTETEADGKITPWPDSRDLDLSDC

| Compound | Ki [1, 3] [nM] | Ki [2] [nM] | Ki [1] [nM] |
| --- | --- | --- | --- |
| CCCCc1cn(C2CCC2)s/c1=N\C(=O)c1cc(Cl)ccc1OC [Example 3, N-[(5Z)-4-butyl-2-cyclobutylisothiazol-5(2H)-ylidene]-5-chloro-2-methoxybenzamide] | 410 | 11 | – |
| CCCCc1c(C)n(C)s/c1=N\C(=O)C12CC3CC(CC1C3)C2 [Example 4, N-[(5Z)-4-butyl-2,3-dimethylisothiazol-5(2H)-ylidene]hexahydro-2,5-methanopentalene-3a(1H)-carboxamide] | – | 3.2 | 3.8 |
| CCCCc1cn(C2(C)CCC2)s/c1=N\C(=O)c1cc(Cl)ccc1OC [Example 5, N-[(5Z)-4-butyl-2-(1-methylcyclobutyl)isothiazol-5(2H)-ylidene]-5-chloro-2-methoxybenzamide] | – | 2.2 | 30 |
| CCCC1CCc2c(/c(=N/C(=O)c3cc(Cl)ccc3OC)sn2C(C)(C)C)C1 (centres unmarked) [Example 9, N-[(3Z)-1-tert-butyl-5-propyl-4,5,6,7-tetrahydro-2,1-benzisothiazol-3(1H)-ylidene]-5-chloro-2-methoxybenzamide] | – | 0.42 | 0.9 |
| COc1ccc(Cl)cc1C(=O)/N=c1\sn(C(C)(C)C)c2c1CC1(CC2)OCCO1 [Example 10, N-[(3Z)-1-tert-butyl-1,4,6,7-tetrahydro-3H-spiro[2,1-benzisothiazole-5,2′-[1,3]dioxolan]-3-ylidene]-5-chloro-2-methoxybenzamide] | 190 | 42 | – |
| COCCc1cn(C(C)(C)C)s/c1=N\C(=O)c1cc(Cl)ccc1OC [Example 11, N-[(5Z)-2-tert-butyl-4-(2-methoxyethyl)isothiazol-5(2H)-ylidene]-5-chloro-2-methoxybenzamide] | – | 29 | – |
| COc1ccc(Cl)cc1C(=O)/N=c1\sn(C(C)(C)C)cc1CCN1CCOCC1 [Example 12, N-[(5Z)-2-tert-butyl-4-(2-morpholin-4-ylethyl)isothiazol-5(2H)-ylidene]-5-chloro-2-methoxybenzamide] | 230 | 12 | – |
| CCC1CC1c1cn(C(C)(C)C)s/c1=N\C(=O)c1cc(Cl)ccc1OC (centres unmarked) [Example 27, N-[(5Z)-2-tert-butyl-4-(2-ethylcyclopropyl)isothiazol-5(2H)-ylidene]-5-chloro-2-methoxybenzamide] | 240 | 23 | – |
| COc1ccc(Cl)cc1C(=O)/N=c1\sn(C(C)(C)C)cc1C(O)c1ccccc1 (centres unmarked) [Example 31, N-[(5Z)-2-tert-butyl-4-[hydroxy(phenyl)methyl]isothiazol-5(2H)-ylidene]-5-chloro-2-methoxybenzamide] | – | 5.8 | 63 |
| COc1ccc(Cl)cc1C(=O)/N=c1\sn(C(C)(C)C)cc1CN=[N+]=[N-] [Example 32, N-[(5Z)-4-(azidomethyl)-2-tert-butylisothiazol-5(2H)-ylidene]-5-chloro-2-methoxybenzamide] | – | 20 | 170 |
| COc1ccc(Cl)cc1C(=O)/N=c1\sn(C(C)(C)C)cc1C(O)CC1CCC1 (centres unmarked) [Example 33, N-[(5Z)-2-tert-butyl-4-(2-cyclobutyl-1-hydroxyethyl)isothiazol-5(2H)-ylidene]-5-chloro-2-methoxybenzamide] | – | 1 | 3.7 |
| COc1ccc(Cl)cc1C(=O)/N=c1\sn(C(C)(C)C)cc1Cc1ccccc1 [Example 35, N-[(5Z)-4-benzyl-2-tert-butylisothiazol-5(2H)-ylidene]-5-chloro-2-methoxybenzamide] | – | 1.1 | 9.1 |
| COc1ccc(Cl)cc1C(=O)/N=c1\sn(C(C)(C)C)cc1C(O)c1cccs1 (centres unmarked) [Example 44, N-[(5Z)-2-tert-butyl-4-[hydroxy(thien-2-yl)methyl]isothiazol-5(2H)-ylidene]-5-chloro-2-methoxybenzamide] | – | 2.1 | 27 |
| COC(=O)CCCc1cn(C(C)(C)C)s/c1=N\C(=O)c1cc(Cl)ccc1OC [Example 45, Methyl 4-{(5Z)-2-tert-butyl-5-[(5-chloro-2-methoxybenzoyl)imino]-2,5-dihydroisothiazol-4-yl}butanoate] | 120 | 5.6 | – |
| CCCCc1cn(C(C)(C)C)s/c1=N\C(=O)c1cc(Cl)ccc1OCC(F)(F)F [Example 47, N-[(5Z)-4-butyl-2-tert-butylisothiazol-5(2H)-ylidene]-5-chloro-2-(2,2,2-trifluoroethoxy)benzamide] | – | 1.8 | 7.3 |
| COc1ccc(C#N)cc1C(=O)/N=c1\sn(C(C)(C)C)cc1Cc1cccs1 [Example 53, N-[(5Z)-2-tert-butyl-4-(thien-2-ylmethyl)isothiazol-5(2H)-ylidene]-5-cyano-2-methoxybenzamide] | – | 2.6 | 59 |
| COc1ccc(Cl)cc1C(=O)/N=c1\sn(C(C)(C)C)cc1Cc1cccs1 [Example 54, N-[(5Z)-2-tert-butyl-4-(thien-2-ylmethyl)isothiazol-5(2H)-ylidene]-5-chloro-2-methoxybenzamide] | – | 1 | 17 |

| Compound | Ki [1, 3] [nM] | Ki [2] [nM] | Ki [1] [nM] |
| --- | --- | --- | --- |
| CCCCc1cn(C(C)(C)C)s/c1=N\C(=O)c1cc(C=NOC)ccc1OC [Example 57, N-[(5Z)-4-butyl-2-tert-butylisothiazol-5(2H)-ylidene]-2-methoxy-5-[(methoxyimino)methyl]benzamide] | 190 | 18 | – |
| CCCCc1cn(C(C)(C)C)s/c1=N\C(=O)c1cc(I)ccc1OC [Example 61, N-[(5Z)-4-butyl-2-tert-butylisothiazol-5(2H)-ylidene]-5-iodo-2-methoxybenzamide] | – | 0.51 | 7.6 |
| C#Cc1ccc(OC)c(C(=O)/N=c2\sn(C(C)(C)C)cc2CCCC)c1 [Example 62, N-[(5Z)-4-butyl-2-tert-butylisothiazol-5(2H)-ylidene]-5-ethynyl-2-methoxybenzamide] | – | 3.1 | 27 |
| CCCCc1cn(C(C)(C)C)s/c1=N\C(=O)c1cc(OC(F)(F)F)ccc1OC [Example 63, N-[(5Z)-4-butyl-2-tert-butylisothiazol-5(2H)-ylidene]-2-methoxy-5-(trifluoromethoxy)benzamide] | – | 3.4 | 33 |
| CCCCc1cn(C(C)(C)C)s/c1=N\C(=O)c1cc(CF)ccc1OC [Example 66, N-[(5Z)-4-butyl-2-tert-butylisothiazol-5(2H)-ylidene]-5-(fluoromethyl)-2-methoxybenzamide] | 103 | 12 | – |
| CC(C)(C)n1cc(Cc2ccco2)/c(=N/C(=O)c2cccc(C(F)(F)F)c2F)s1 [Example 70, N-[(5Z)-2-tert-butyl-4-(2-furylmethyl)isothiazol-5(2H)-ylidene]-2-fluoro-3-(trifluoromethyl)benzamide] | – | 4.2 | 34 |
| CCCCc1cn(C(C)(C)C)s/c1=N\C(=O)c1cc(C(C)C)ccc1OC [Example 82, N-[(5Z)-4-butyl-2-tert-butylisothiazol-5(2H)-ylidene]-5-isopropyl-2-methoxybenzamide] | 160 | 15 | – |
| COc1ccc(Cl)cc1C(=O)/N=c1\sn(C(C)(C)C)cc1COC[C@H]1CCCO1 [Example 89, N-[(5Z)-2-tert-butyl-4-{[(2R)-tetrahydrofuran-2-ylmethoxy]methyl}isothiazol-5(2H)-ylidene]-5-chloro-2-methoxybenzamide] | 190 | 7.9 | – |
| COc1ccc(Cl)cc1C(=O)/N=c1\sn(C(C)(C)C)cc1COCCF [Example 90, N-[(5Z)-2-tert-butyl-4-[(2-fluoroethoxy)methyl]isothiazol-5(2H)-ylidene]-5-chloro-2-methoxybenzamide] | 280 | 27 | – |
| CCCCc1cn(C(C)(C)C)s/c1=N\C(=O)C1(c2ccc(F)cc2Cl)CCCCC1 [Example 95, N-[(5Z)-4-butyl-2-tert-butylisothiazol-5(2H)-ylidene]-1-(2-chloro-4-fluorophenyl)cyclohexanecarboxamide] | – | 2.3 | 7.5 |
| CCCCc1cn(C(C)(C)C)s/c1=N\C(=O)C1(c2ccccc2)CCCC1 [Example 98, N-[(5Z)-4-butyl-2-tert-butylisothiazol-5(2H)-ylidene]-1-phenylcyclopentanecarboxamide] | – | 4.8 | 10 |
| CCCCc1cn(C(C)(C)C)s/c1=N\C(=O)C12CCC(C(=O)OC)(CC1)CC2 [Example 108, Methyl 4-({[(5Z)-4-butyl-2-tert-butylisothiazol-5(2H)-ylidene]amino}carbonyl)bicyclo[2.2.2]octane-1-carboxylate] | 180 | 13 | – |
| CCCCc1cn(C(C)(C)C)s/c1=N\S(=O)(=O)c1cc(Cl)ccc1OC [Example 115, N-[(5Z)-4-butyl-2-tert-butylisothiazol-5(2H)-ylidene]-5-chloro-2-methoxybenzenesulfonamide] | – | 33 | 53 |
| CCCCc1cn(C(C)(C)C)s/c1=N\S(=O)(=O)c1ccccc1 [Example 119, N-[(5Z)-4-butyl-2-tert-butylisothiazol-5(2H)-ylidene]benzenesulfonamide] | 170 | 33 | – |
| CCCCc1cn(C(C)(C)C)s/c1=N\C(=O)c1cc(C#N)ccc1OCC(F)(F)F [Example 130, N-[(5Z)-4-butyl-2-tert-butylisothiazol-5(2H)-ylidene]-5-cyano-2-(2,2,2-trifluoroethoxy)benzamide] | – | 2.8 | 81 |
| COc1ccc(Cl)cc1C(=O)/N=c1\sn(C(C)(C)C)c(C)c1NC(=O)OC(C)(C)C [Example 162, Tert-butyl [(5Z)-2-tert-butyl-5-{[(5-chloro-2-methoxyphenyl)carbonyl]imino}-3-methyl-2,5-dihydroisothiazol-4-yl]carbamate] | 120 | 47 | – |
